Measurements: PubChem BioAssay AID179 (DTP/NCI, 2004)
“And” between values parts separate entries of the source, which are not always exact repeats. Identical values can stand only once. The source made the active and inactive calls.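 How the source made its calls: active means compounds giving half or more protection of infected cells from virus-caused growth loss, again on retest; inactive means the rest.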

Test system: CEM cells HIV-1 protection, formazan growth assay
Test: NCI AIDS Antiviral Assay
Settings: for IC50: measured here: growth of uninfected CEM cells
Method in brief: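 Five concentrations of each compound were applied to infected and uninfected human CEM cells. Protection from HIV-1 was judged from growth measured with a soluble formazan assay.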

Structure (SMILES)	EC50 [µM]	IC50	outcome
Cc1oc(NC(=O)C(=O)O)c(C#N)c1C	> 200	> 200 µM	
CCOC(=O)c1c(C)c(N=O)c2ccccn12	> 200	5.62 µM	
CC(C)CC(NC=O)C(=O)NC(Cc1ccccc1)NC(=O)CNC(=O)C(C)NC(=O)C(N)Cc1ccc(O)cc1 (stereo not given)	141	151 µM	
Cc1ccc(C2=Nc3c(N)nc(N)nc3NC(c3ccccc3)C2)cc1 (stereo not given)	> 200	4.27 µM and 3.72 µM	
CCOC(=O)c1c(SC(=O)C(C)(C)Oc2ccc(Cl)cc2)n(-c2ccccc2)c(=S)n(-c2ccccc2)c1=O	> 200	9.55 µM	
CC(C)(C)[Si](C)(C)OCC1OC(n2ccc(=O)[nH]c2=O)C(O[Si](C)(C)C(C)(C)C)[C@]12N[C@H](C(N)=O)CS2 (stereo not given in full)	> 200	5.25 µM	
NC1=NS(=O)(=O)Nc2nc(-c3ccc([N+](=O)[O-])o3)[nH]c21	> 200	10 µM	
CNC(=O)Oc1cccc(CN(C)C)c1	> 200	> 200 µM	
O=C(O)c1cc(Nc2nc(Cl)nc(Cl)n2)ccc1-c1c2ccc(=O)cc-2oc2cc(O)ccc12	38	692 µM	
Cc1ccc2c(n1)C(N(C)C)=CC(=O)C2=O			inactive
CCOC(=O)C1=C(OC(OCC)C(C)[Se]c2ccccc2)CCC1 (stereo not given)	> 46.8	42.7 µM	
CC(C)(O)c1cc2nc3ccccc3nc2n1CCO	> 200	> 200 µM	
Cc1c(OCCCOc2ccc3c(=O)cc(-c4ccccc4)oc3c2C)ccc2c(=O)cc(-c3ccccc3)oc12	> 25.1	> 25.1 µM	
C1CCC2(CC1)CCCN2	> 200	> 200 µM	
N#C/C(=C\c1ccc(C#N)cc1)c1ccccc1	> 11.7	> 11.7 µM	
Cc1cc(N2CCCC2)c([N+](=O)[O-])cc1[N+](=O)[O-]	> 200	> 200 µM	
Cc1cc2c(cc1Cl)SC(NNC(=O)c1ccccc1)=NS2(=O)=O	123	132 µM	
Cc1cc(S(=O)(=O)Nc2nnc3cnc4ccccc4n23)c(S)cc1Cl	89.1	339 µM	

Structure (SMILES)	EC50 [µM]	IC50	outcome
Cc1ccc(S(=O)(=O)N[C@H](C(=O)O)c2ccccc2)cc1			inactive
C=CC(C)(C)C(=C)C(=O)N(C)c1ccccc1I	> 200	89.1 µM	
CC(C)(C)[Si](C)(C)OCC1OC(n2ccc(=O)[nH]c2=O)C(O[Si](C)(C)C(C)(C)C)/C1=C/CO (stereo not given)	> 200	8.32 µM	
CN(NC(=O)c1cccs1)C1=NCCN1	> 200	> 200 µM	
O=C1Oc2ccccc2C(=O)/C1=C1\SSC(c2ccccc2)=C1c1ccccc1	> 200	> 200 µM	
CC(=O)OC(Cn1cncn1)(Cn1cncn1)c1ccc(Cl)cc1Cl	> 200	> 200 µM	
CN1CC2=C(NC(=S)NC2c2ccc(Cl)cc2)/C(=C/c2ccc(Cl)cc2)C1 (stereo not given)	> 200	33.9 µM	
CC1=NN(C(=O)CC(=O)Nc2cccc(C)c2)C(=O)C1N=Nc1ccc(S(=O)(=O)c2ccc(N=NC3C(=O)N(C(=O)CC(=O)Nc4cccc(C)c4)N=C3C)cc2)cc1 (stereo not given)	> 50.1	> 50.1 µM	
Clc1nc(Cl)c2sc(=[Se])sc2n1	> 200	8.51 µM	
CC(=O)NC(CC(C)C(=O)O)(C(=O)O)C(=O)O (stereo not given)	> 200	> 200 µM	
Cc1ccc(NC(=O)NC(=O)c2ccc([N+](=O)[O-])cc2[N+](=O)[O-])cc1Oc1ncc(Cl)cn1			inactive
COS(=O)c1cc(Cl)cc(Cl)c1OC(=O)CSSCC(=O)Oc1c(Cl)cc(Cl)cc1S(=O)OC (stereo not given)			inactive
CN(C)NC(=S)C(F)(F)C(F)(F)F	> 200	10.2 µM	
c1cn(C23C4C5C6C4C2C6C53)cn1 (stereo not given)	> 200	> 200 µM	
N/C(=N/N=C/c1ccc2ccccc2n1)NO			inactive
Cc1ccc2nc(Sc3c([N+](=O)[O-])ncn3C)[nH]c2c1	> 5.01	4.79 µM	
Cc1ccc(CCC(=O)C(=O)O)s1	> 479	> 479 µM	
